Molecules are shown by their SMILES. Where only a bound is given, the exact number is not on record here.

For one assay, the target named is PTPH1 (Homo sapiens (Human), UniProt P26045). As to the kind of experiment: pNPP hydrolysis enzyme assay, PTPH1. Format: biochemical. Here is the method:
(§1) Enzyme kinetic assay. PTP activity was assayed using p-nitrophenyl phosphate (pNPP) as a substrate in 3,3-dimethylglutarate buffer (50 mM 3,3-dimethylglutarate, pH 7.0, 1 mM EDTA, 150 mM NaCl, 2 mM DTT, 0.1 mg/mL BSA) at 25° C. The assays were performed in 96-well plates. Normally, to determine the IC50 values, the reaction was initiated by the addition of enzyme (final concentration at 10 nM) to a reaction mixture (0.2 mL) containing 2 mM (Km for the substrate) pNPP with various concentrations of inhibitors. The reaction rate was measured using a SpectraMax Plus 384 Microplate Spectrophotometer (Molecular Devices). To determine the mode of inhibition, the reactions were initiated by the addition of PTP-MEG2 to the reaction mixtures (0.2 mL) containing various concentrations of pNPP with different concentrations of the inhibitor 7. Data were fitted using SigmaPlot Enzyme Kinetics Module (Systat Software, Inc.).

In assay [1] the test system is diet-induced obese C57BL/6 mice. As to the kind of experiment: Insulin tolerance test in diet-induced obese mice. The assay is classed as in vivo, mouse. To be noted: 5 mg/kg i.p. twice a day. Here is the method: C57BL/6J mice were fed a high-fat diet for 10 weeks before Compound 7 or vehicle was injected intraperitoneally twice a day at a dose of 5 mg/kg body weight. FIG. 5A depicts insulin tolerance tests (ITT) performed on Day 7 by injecting intraperitoneally a bolus of 0.75 unit/kg of human regular insulin. […] FIG. 5C depicts glucose tolerance tests (GTT) carried out on Day 9 after a bolus of 1 g/kg glucose was injected intraperitoneally. […] FIG. 5E depicts pyruvate tolerance tests (PTT) performed on Day 12 after an injection of 2 g/kg pyruvate solution. […] At the end of 2-week injections of Compound 7, animals were fasted overnight and stimulated with a bolus of 1 unit of human regular insulin or saline via vena cava. Three minutes later, liver, skeletal muscle, and white adipose tissue (WAT) were collected sequentially for insulin signaling analysis. FIG. 5G depicts the phosphorylation of Tyr1162/1163 in insulin receptor (IR) and Ser473 phosphorylation in Akt kinases and the corresponding proteins in the liver, skeletal muscle, and white adipose tissue (WAT) were analyzed by immunoblots.
To this end, we intraperitoneally injected Compound 7 into diet-induced obese C57BL/6 mice at a dose of 5 mg/kg twice a day. […] After 7 days of injections, we performed insulin tolerance tests to measure insulin sensitivity in vehicle and Compound 7 treated mice.

The target in a further assay is PTPγ (Homo sapiens (Human), UniProt P23470). In words: pNPP hydrolysis enzyme assay, PTPγ. The assay is classed as biochemical. On the procedure: as §1
PTPγ, sequence (P23470 20-1445): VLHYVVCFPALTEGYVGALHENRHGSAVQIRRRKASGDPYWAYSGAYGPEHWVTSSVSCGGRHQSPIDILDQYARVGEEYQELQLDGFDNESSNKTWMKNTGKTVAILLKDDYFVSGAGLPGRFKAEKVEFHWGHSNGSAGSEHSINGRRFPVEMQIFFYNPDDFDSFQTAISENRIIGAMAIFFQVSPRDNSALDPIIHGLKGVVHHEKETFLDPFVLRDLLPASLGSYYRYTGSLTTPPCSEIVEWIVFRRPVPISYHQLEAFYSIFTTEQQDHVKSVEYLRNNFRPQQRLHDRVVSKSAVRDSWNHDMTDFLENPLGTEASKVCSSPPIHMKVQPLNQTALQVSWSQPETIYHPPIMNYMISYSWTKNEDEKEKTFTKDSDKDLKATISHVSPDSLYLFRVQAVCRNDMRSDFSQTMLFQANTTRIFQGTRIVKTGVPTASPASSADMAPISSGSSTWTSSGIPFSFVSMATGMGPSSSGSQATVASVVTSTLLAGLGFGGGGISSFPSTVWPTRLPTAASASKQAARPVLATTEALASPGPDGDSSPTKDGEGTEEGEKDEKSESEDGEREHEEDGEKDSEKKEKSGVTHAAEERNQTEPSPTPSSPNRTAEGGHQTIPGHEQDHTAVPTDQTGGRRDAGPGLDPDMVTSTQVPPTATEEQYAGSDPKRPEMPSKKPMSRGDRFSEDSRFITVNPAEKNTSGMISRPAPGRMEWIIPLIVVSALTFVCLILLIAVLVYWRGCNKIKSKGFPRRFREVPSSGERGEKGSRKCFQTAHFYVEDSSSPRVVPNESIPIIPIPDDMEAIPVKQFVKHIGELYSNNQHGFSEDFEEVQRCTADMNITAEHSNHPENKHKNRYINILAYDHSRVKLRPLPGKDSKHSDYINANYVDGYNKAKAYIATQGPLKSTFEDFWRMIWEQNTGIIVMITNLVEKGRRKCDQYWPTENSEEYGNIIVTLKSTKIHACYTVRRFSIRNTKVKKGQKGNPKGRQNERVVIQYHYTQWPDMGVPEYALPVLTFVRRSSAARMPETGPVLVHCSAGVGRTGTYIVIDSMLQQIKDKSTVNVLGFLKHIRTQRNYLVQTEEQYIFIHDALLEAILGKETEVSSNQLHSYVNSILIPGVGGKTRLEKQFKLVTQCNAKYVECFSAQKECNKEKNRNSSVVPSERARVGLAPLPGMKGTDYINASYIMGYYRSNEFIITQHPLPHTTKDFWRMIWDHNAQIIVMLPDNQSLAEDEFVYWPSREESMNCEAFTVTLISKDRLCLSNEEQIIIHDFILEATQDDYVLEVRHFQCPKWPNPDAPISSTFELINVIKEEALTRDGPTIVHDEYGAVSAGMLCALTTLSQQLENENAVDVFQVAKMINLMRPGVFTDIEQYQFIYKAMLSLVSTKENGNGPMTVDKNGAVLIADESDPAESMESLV
Assay [2] relates to insulin signaling in mouse primary hepatocytes. As to the kind of experiment: Insulin signaling in mouse primary hepatocytes (Western blot). Format: cell-based. The conditions noted are these: for increase of phosphorylated IR (Tyr1162/1163): 1 hour pretreatment, 5 nM insulin 5 minutes, vs DMSO. On the procedure:
FIGS. 4A-B depict the ability of PTP-MEG2 inhibitor Compound 7 to sensitize insulin signaling in primary hepatocytes. […] Mouse primary hepatocytes were cultured in 0.5% FBS DMEM medium overnight. Prior to insulin stimulation, the cells were pretreated with Compound 7 or 8 for 1 hour. Then the cells were stimulated with 5 nM insulin for 5 minutes. Insulin signaling was analyzed by Western Blots using phospho-specific antibodies. […] Mouse primary hepatocytes were cultured in DMEM medium plus 0.5% FBS for overnight in the presence or absence of insulin or Compound 7 or 8. Then the cells were harvested for mRNA isolation and gene expression analysis using real-time PCR. The mRNA levels of Foxo1 target genes were normalized with Ppia as an internal control. Data are presented as mean±SEM. *, P<0.05 for Compound 7 vs. DMSO; #, P<0.05 for INS+Compound 7 vs. INS alone.
FIG. 10 depicts the time course of pIR (Tyr 1162/63) level. Primary hepatocyte cells were starved overnight. Prior to insulin stimulation, the cells were preincubated with either vehicle DMSO, Compound 7, or Compound 8 for 1 hour. Then the cells were stimulated with 5 nM Insulin for 0, 5, 30, 60 min. Cell lysates were harvested for Western Blot, using anti-pIR (Tyr 1162/63) antibodies.
Mouse primary hepatocytes were isolated and cultured in DMEM medium with 0.5% FBS for 12 hours, and then were incubated with either vehicle DMSO, Compound 7 (100 nM), or Compound 8 (100 nM) for one hour. Phosphorylated IR, Gsk3β, and Foxo1 and the corresponding total proteins were analyzed by Western blots.
PTP-MEG2 inhibitor Compound 7 augments insulin signaling in cells. Given the excellent potency and selectivity of Compound 7 toward PTP-MEG2, we proceeded to evaluate its effect on PTP-MEG2-dependent signaling inside the cell. To assess the effects of Compound 7 on insulin signaling, we pretreated mouse primary hepatocytes with Compound 7 for 1 hour and then stimulated the cells with 5 nM insulin for 5 minutes. […] Remarkably, the phosphorylated form of IR was increased 50% and 100% at concentrations of 50 nM (1.5×Ki) and 100 nM of Compound 7, respectively (FIG. 4A and FIG. 8). […] Phosphorylation of Akt (Ser473) was increased by 3.1 and 4.5 fold; phosphorylation of GSK-3β (Ser9) was increased by 1.5 and 2.0 fold; and phosphorylation of Foxo1 (Ser253) was increased by 2.1 and 2.9 fold at 100 and 200 nM concentrations of Compound 7, respectively.
Western blot analysis. Cells were homogenized in the lysis buffer (50 mM Hepes, pH 7.5, 150 mM NaCl, 10% Glycerol, 1% Triton X-100, 1.5 mM MgCl2, 1 mM EGTA, 10 μM Sodium Pyrophosphate, 100 mM sodium fluoride and freshly added 100 μM sodium vanadate, 1 mM PMSF, 10 μg/ml Aprotinin, and 10 μg/mL Leupeptin). Protein extracts were resolved on an SDS-PAGE gel and transferred to nitrocellulose membrane. Proteins were probed using the following antibodies: IR(pY1162/63), IR (Santa Cruz Biotechnology), Akt(pS473), Aid, GSK3β(pS9), GSK3β, Foxo1(pS256), Foxo1, Erk1/2(pT202/Y204), Erk1/2 (Cell Signaling Technology). Protein signals were detected by incubation with HRP-conjugated secondary antibodies, followed by ECL detection reagent (Pierce). Western blots were scanned and quantified using the Quantity One software (Bio-Rad).

PTPH1, sequence (P26045 whole entry, species assumed): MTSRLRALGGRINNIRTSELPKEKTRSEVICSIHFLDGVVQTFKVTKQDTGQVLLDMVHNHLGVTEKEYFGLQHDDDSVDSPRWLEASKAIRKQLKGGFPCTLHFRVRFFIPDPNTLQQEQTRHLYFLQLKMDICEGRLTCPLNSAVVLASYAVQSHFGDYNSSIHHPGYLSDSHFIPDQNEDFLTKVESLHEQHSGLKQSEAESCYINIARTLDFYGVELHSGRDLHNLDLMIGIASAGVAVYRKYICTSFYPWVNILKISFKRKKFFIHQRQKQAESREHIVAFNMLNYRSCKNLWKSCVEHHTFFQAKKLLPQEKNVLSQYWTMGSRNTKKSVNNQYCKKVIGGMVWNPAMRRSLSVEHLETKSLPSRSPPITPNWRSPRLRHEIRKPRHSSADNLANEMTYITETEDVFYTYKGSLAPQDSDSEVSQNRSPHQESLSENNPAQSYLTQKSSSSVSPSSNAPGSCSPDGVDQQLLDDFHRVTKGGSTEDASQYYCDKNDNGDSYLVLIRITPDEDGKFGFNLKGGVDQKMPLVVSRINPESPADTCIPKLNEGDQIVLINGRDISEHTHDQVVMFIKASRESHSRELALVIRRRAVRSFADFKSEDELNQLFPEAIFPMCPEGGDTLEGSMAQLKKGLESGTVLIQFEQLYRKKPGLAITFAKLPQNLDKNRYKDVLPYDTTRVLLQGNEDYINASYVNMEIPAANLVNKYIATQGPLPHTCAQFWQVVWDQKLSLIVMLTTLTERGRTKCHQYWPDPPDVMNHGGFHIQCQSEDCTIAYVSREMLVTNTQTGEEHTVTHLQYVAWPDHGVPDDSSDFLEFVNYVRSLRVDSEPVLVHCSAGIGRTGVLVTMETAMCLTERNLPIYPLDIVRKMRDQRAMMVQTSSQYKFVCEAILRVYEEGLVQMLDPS

`COc1cc(CC(=O)NCC(NC(=O)C(CCCNC(=O)c2cccc(I)c2)NC(=O)C(Cc2ccc(C(F)(F)P(=O)(O)O)cc2)NC(=O)c2ccc(C)c(Br)c2)C(N)=O)ccc1O` (stereo not drawn) [Compound 7]: the IC50 against PTPH1 is > 10000 nM. Further, in assay [1] (Day 7, at 15 and 60 minutes after 0.75 unit insulin), the “insulin sensitivity in insulin tolerance test” value is recorded as “significantly improved insulin sensitivity”. In addition, in assay [1] (Day 7, vs vehicle), the “improvement in insulin tolerance (AUC)” value worked out at 14%. On PTPγ, the IC50 was > 10000 nM. In addition, in assay [2] (50 nM compound), the “increase of phosphorylated IR (Tyr1162/1163)” value is on record as 50%. Further, in assay [2] (100 nM compound, 5 nM insulin), the “increase of Akt (Ser473) phosphorylation” value worked out at 3.1 fold, the “increase of Foxo1 (Ser253) phosphorylation” value is given as 2.1 fold and the “increase of GSK-3β (Ser9) phosphorylation” value worked out at 1.5 fold. The “increase of phosphorylated IR (Tyr1162/1163)” value in assay [2] (100 nM compound) is 100%. For the same molecule, the “insulin signaling pathway under basal conditions” value in assay [2] (100 nM, one hour, no insulin) was “enhanced”. In assay [2] (200 nM compound, 5 nM insulin), the “increase of Akt (Ser473) phosphorylation” value is reported as 4.5 fold, the “increase of Foxo1 (Ser253) phosphorylation” value stood at 2.9 fold and the “increase of GSK-3β (Ser9) phosphorylation” value is listed as 2.0 fold. Further, the Erk1/2 activation result in assay [2] (insulin-stimulated hepatocytes) is “strongly enhanced”. Besides, in assay [2] (no insulin, 100 nM, 1 hour), the “increase of basal phosphorylation of Foxo1” value came to 2.2 fold, the “increase of basal phosphorylation of GSK-3β” value is on record as 2.0 fold and the “increase of basal phosphorylation of IR” value turned out to be 2.1 fold. For the same molecule, the “duration of potentiation of insulin stimulated IR phosphorylation” value in assay [2] (time course 0, 5, 30, 60 min, 5 nM insulin) was “at least 1 hour”.

Broadly, the IC50 is the point on the concentration scale where inhibition reaches its midpoint.

The values are drawn from patent publication US9340574B2, “Inhibitors of protein tyrosine phosphatases” (Indiana University Research and Technology Corporation, priority 2012, dated 2016).
